Source: US8236818B2, “Substituted imidazopyridine derivatives as melanocortin-4 receptor antagonists” (Santhera Pharmaceuticals (Schweiz) AG, priority 2007, dated 2012)

Key:
[1] = molecular target: T1, melanocortin-4 receptor (Homo sapiens, UniProt P32245); experiment: Functional assay (cAMP fluorescence polarization, membrane based, agonistic activity); format: biochemical; settings: for Emax: 2 h, read-out: % activation functional assay; for EC50: agonistic activity, cAMP, HEK293 membrane preparations, read-out: hMC-4R functional assay EC50/μM
T1 construct: expressed in transfected cells; host or cells: HEK293 cells (membrane preparations)
T1 sequence (P32245 whole entry): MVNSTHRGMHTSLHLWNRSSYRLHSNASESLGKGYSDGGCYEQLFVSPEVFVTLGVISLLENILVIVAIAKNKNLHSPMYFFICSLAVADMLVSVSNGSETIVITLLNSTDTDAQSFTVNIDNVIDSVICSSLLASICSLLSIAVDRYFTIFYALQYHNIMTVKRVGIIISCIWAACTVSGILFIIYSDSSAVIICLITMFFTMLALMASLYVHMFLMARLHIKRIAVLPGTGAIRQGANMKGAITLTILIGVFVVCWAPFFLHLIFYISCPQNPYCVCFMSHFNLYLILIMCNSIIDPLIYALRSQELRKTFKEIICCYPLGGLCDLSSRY

[2] = molecular target: T1, melanocortin-4 receptor; experiment: Membrane binding assay (fluorescence polarization, competition with fluorescence labeled NDP-alpha-MSH); settings: read-out: hMC-4R binding assay IC50/μM

SMILES	Emax [1] [%]	IC50 [2] [µM]	EC50 [1] [µM]
CC(C)CCN(CCC(C)C)C(=O)c1ccc2nc(-c3ccc4c(c3)OCCO4)c(CCCN)n2c1 [Example 1]	0	0.1 to 1	
CC(C)CCN(CCC(C)C)C(=O)c1ccc2nc(-c3ccc4c(c3)OCCO4)c(CCCN3CCCCC3)n2c1 [Example 2]	0	< 0.1	
COc1ccc(-c2nc3ccc(C(=O)N(CCC(C)C)CCC(C)C)cn3c2CCCN)cc1 [Example 3]	0	0.1 to 1	
CC(C)CCN(CCC(C)C)C(=O)c1ccc2nc(-c3ccc(Cl)cc3)c(CCCN)n2c1 [Example 4]	0	0.1 to 1	
COc1ccc(-c2nc3ccc(C(=O)N(CCC(C)C)CCC(C)C)cn3c2CCCN(C)C)cc1 [Example 5]	0	0.1 to 1	
COc1ccc(-c2nc3ccc(C(=O)N(CCC(C)C)CCC(C)C)cn3c2CCCN2CCCC2)cc1 [Example 6]	0	< 0.1	
COc1cccc(-c2nc3ccc(C(=O)N(CCC(C)C)CCC(C)C)cn3c2CCCNC(C)C)c1 [Example 7]	0	0.1 to 1	
CCN(CC)CCCc1c(-c2cccc(OC)c2)nc2ccc(C(=O)N(CCC(C)C)CCC(C)C)cn12 [Example 8]	0	< 0.1	
COc1cccc(-c2nc3ccc(C(=O)N(CCC(C)C)CCC(C)C)cn3c2CCCN2CCCC2)c1 [Example 9]	0	< 0.1	
COc1cccc(-c2nc3ccc(C(=O)N(CCC(C)C)CCC(C)C)cn3c2CCCNCC2CC2)c1 [Example 10]	0	> 1	
COc1cccc(-c2nc3ccc(C(=O)N(CCC(C)C)CCC(C)C)cn3c2CCCN2CCC2)c1 [Example 11]	0	< 0.1	
COc1cccc(-c2nc3ccc(C(=O)N(CCC(C)C)CCC(C)C)cn3c2CCCN2CCOCC2)c1 [Example 12]	0	< 0.1	
COCC(C)NCCCc1c(-c2cccc(OC)c2)nc2ccc(C(=O)N(CCC(C)C)CCC(C)C)cn12 (centres unmarked) [Example 13]	0	> 1	
COc1cccc(-c2nc3ccc(C(=O)N(CCC(C)C)CCC(C)C)cn3c2CCCN2CC[C@H](F)C2)c1 [Example 14]	0	< 0.1	
COc1cccc(-c2nc3ccc(C(=O)N(CCC(C)C)CCC(C)C)cn3c2CCCN2CCN(C)CC2)c1 [Example 15]	0	0.1 to 1	
COc1cccc(-c2nc3ccc(C(=O)N(CCC(C)C)CCC(C)C)cn3c2CCCN2CCOC[C@@H]2C)c1 [Example 16]	0	< 0.1	
CC(C)CCN(CCC(C)C)C(=O)c1ccc2nc(-c3ccc(C#N)cc3)c(CCCN3CCCC3)n2c1 [Example 17]	0	< 0.1	
CC(C)CCN(CCC(C)C)C(=O)c1ccc2nc(-c3ccc(C#N)cc3)c(CCCN(C)C)n2c1 [Example 18]	0	0.1 to 1	
CC(C)CCN(CCC(C)C)C(=O)c1ccc2nc(-c3ccc(Cl)cc3)c(CCCN3CCCC3)n2c1 [Example 19]	0	< 0.1	
CC(C)CCN(CCC(C)C)C(=O)c1ccc2nc(-c3ccc(Cl)cc3)c(CCCN(C)C)n2c1 [Example 20]	-18	0.1 to 1	< 0.1
COc1cccc(-c2nc3ccc(C(=O)N(CCC(C)C)CCC(C)C)cn3c2CCC(C)N2CCCC2)c1 (centres unmarked) [Example 21]	0	< 0.1	
CC(C)CCN(CCC(C)C)C(=O)c1ccc2nc(-c3ccc(Cl)cc3)c(CCCCN3CCCC3)n2c1 [Example 22]	0	0.1 to 1	
CCN(C)CCCCc1c(-c2ccc(Cl)cc2)nc2ccc(C(=O)N(CCC(C)C)CCC(C)C)cn12 [Example 23]	0	0.1 to 1	
CC(C)CCN(CCC(C)C)C(=O)c1ccc2nc(-c3ccc(Cl)cc3)c(CCCCN(C)C)n2c1 [Example 24]	0	> 1	
CC(C)CCN(CCC(C)C)C(=O)c1ccc2nc(-c3ccc(C(N)=O)cc3)c(CCCN3CCCC3)n2c1 [Example 25]	0	< 0.1	
CC(C)CCN(CCC(C)C)C(=O)c1ccc2nc(-c3ccc(C#N)cc3)c(CCN3CCCC3)n2c1 [Example 26]	0	0.1 to 1	

SMILES	Emax [1] [%]	IC50 [2] [µM]	EC50 [1] [µM]
CC(C)CCN(CCC(C)C)C(=O)c1ccc2nc(-c3ccc(C#N)cc3)c(CCN3CCN(C)CC3)n2c1 [Example 27]	0	> 1	
COc1cccc(-c2nc3ccc(C(=O)N(CCC(C)C)CCC(C)C)cn3c2CCCN(C)C)c1 [Example 28]	0	0.1 to 1	
CCN(C)CCCc1c(-c2cccc(OC)c2)nc2ccc(C(=O)N(CCC(C)C)CCC(C)C)cn12 [Example 29]	0	< 0.1	
COc1cccc(-c2nc3ccc(C(=O)N(CCC(C)C)CCC(C)C)cn3c2CCCN2CCC(F)CC2)c1 [Example 30]	0	< 0.1	
COc1cccc(-c2nc3ccc(C(=O)N(CCC(C)C)CCC(C)C)cn3c2CCCN2CCCCC2)c1 [Example 31]	0	< 0.1	
COc1cccc(-c2nc3ccc(C(=O)N(CCC(C)C)CCC(C)C)cn3c2CCCN2CC[C@@H](F)C2)c1 [Example 32]	0	0.1 to 1	
COc1cccc(-c2nc3ccc(C(=O)N(CCC(C)C)CCC(C)C)cn3c2CCCN2CC[C@H](O)C2)c1 [Example 33]	-22	< 0.1	< 0.1
COc1cccc(-c2nc3ccc(C(=O)N(CCC(C)C)CCC(C)C)cn3c2CCCN2CC[C@@H](O)C2)c1 [Example 34]	-18	< 0.1	< 0.1
CC(C)CCN(CCC(C)C)C(=O)c1ccc2nc(-c3ccc(S(C)(=O)=O)cc3)c(CCCN3CCCC3)n2c1 [Example 35]	0	< 0.1	
COc1cccc(-c2nc3ccc(C(=O)N(CCC(C)C)CCC(C)C)cn3c2CCCN2CCNCC2)c1 [Example 36]	0	> 1	
COc1cccc(-c2nc3ccc(C(=O)N(CCC(C)C)CCC(C)C)cn3c2CCCN2CC(O)C2)c1 [Example 37]	0	< 0.1	
C#CCN(C)CCCc1c(-c2cccc(OC)c2)nc2ccc(C(=O)N(CCC(C)C)CCC(C)C)cn12 [Example 38]	0	> 1	
CC(C)CCN(CCC(C)C)C(=O)c1ccc2nc(-c3ccc4c(c3)OCO4)c(CCCN3CCCC3)n2c1 [Example 39]	0	< 0.1	
Cc1ccnc(-c2nc3ccc(C(=O)N(CCC(C)C)CCC(C)C)cn3c2CCCN2CCCC2)c1 [Example 40]	0	0.1 to 1	
Cc1cccc(-c2nc3ccc(C(=O)N(CCC(C)C)CCC(C)C)cn3c2CCCN2CCCC2)n1 [Example 41]	0	< 0.1	
CC(C)CCN(CCC(C)C)C(=O)c1ccc2nc(-c3ccc(Cl)cn3)c(CCCN3CCCC3)n2c1 [Example 42]	0	< 0.1	
CC(C)CCN(CCC(C)C)C(=O)c1ccc2nc(-c3ccc4c(c3)NC(=O)CO4)c(CCCN3CCCC3)n2c1 [Example 43]	0	< 0.1	
CC(C)CCN(CCC(C)C)C(=O)c1ccc2nc(-c3cc(O)ccn3)c(CCCN3CCCC3)n2c1 [Example 44]	0	< 0.1	
CC(C)CCN(CCC(C)C)C(=O)c1ccc2nc(-c3ccc4c(c3)CCC(=O)N4)c(CCCN3CCCC3)n2c1 [Example 45]	0	< 0.1	
CC(C)CCN(CCC(C)C)C(=O)c1ccc2nc(-c3cc(O)ccn3)c(CCCN(C)C)n2c1 [Example 46]	0	0.1 to 1	
CC(C)CCN(CCC(C)C)C(=O)c1ccc2nc(-c3ncco3)c(CCCN3CCCC3)n2c1 [Example 47]	0	< 0.1	
Cc1nc(C)c(-c2nc3ccc(C(=O)N(CCC(C)C)CCC(C)C)cn3c2CCCN2CCCC2)o1 [Example 48]	0	< 0.1	
CC(C)CCN(CCC(C)C)C(=O)c1ccc2nc(-c3nccs3)c(CCCN3CCCC3)n2c1 [Example 49]	0	< 0.1	
CC(C)CCN(CCC(C)C)C(=O)c1ccc2nc(-c3ccc(C(=O)O)cc3)c(CCCN3CCCC3)n2c1 [Example 50]	-1	0.1 to 1	
CC(C)CCN(CCC(C)C)C(=O)c1ccc2nc(-c3ccc(N(C)C)nc3)c(CCCN(C)C)n2c1 [Example 51]	0	< 0.1	
CC(C)CCN(CCC(C)C)C(=O)c1ccc2nc(-c3ncco3)c(CCCN(C)C)n2c1 [Example 52]	0	0.1 to 1	
